Experiment: xn = mol fraction of the nth substance listed
Conditions: 100 kPa, Liquid

C1COCCO1 [1,4-dioxane] + CC#N
mass density [kg/m3]
Conditions | 288.15 K | 293.15 K | 298.15 K | 303.15 K
x1 = 0.0046 | 789.4 | 784.08 | 778.69 | 773.26
x1 = 0.0101 | 791.73 | 786.38 | 780.98 | 775.56
x1 = 0.0249 | 797.92 | 792.61 | 787.21 | 781.78
x1 = 0.0336 | 801.42 | 796.07 | 790.67 | 785.24
x1 = 0.0497 | 808.04 | 802.72 | 797.32 | 791.89
x1 = 0.0627 | 813.27 | 807.95 | 802.55 | 797.13
x1 = 0.1106 | 831.43 | 826.1 | 820.71 | 815.28
x1 = 0.1643 | 850.48 | 845.16 | 839.75 | 834.33
x1 = 0.2127 | 866.78 | 861.44 | 856.05 | 850.62
x1 = 0.2853 | 889.43 | 884.08 | 878.67 | 873.24
x1 = 0.3355 | 904 | 898.64 | 893.23 | 887.8
x1 = 0.4341 | 930.27 | 924.89 | 919.46 | 914.02
x1 = 0.4807 | 941.65 | 936.29 | 930.86 | 925.4
x1 = 0.5277 | 952.67 | 947.29 | 941.85 | 936.38
x1 = 0.5828 | 964.93 | 959.51 | 954.06 | 948.58
x1 = 0.6385 | 976.54 | 971.14 | 965.66 | 960.16
x1 = 0.6845 | 985.67 | 980.25 | 974.76 | 969.25
x1 = 0.7278 | 993.97 | 988.54 | 983.03 | 977.5
x1 = 0.777 | 1002.84 | 997.35 | 991.82 | 986.28
x1 = 0.8181 | 1010.08 | 1004.61 | 999.06 | 993.5
x1 = 0.8703 | 1018.77 | 1013.28 | 1007.7 | 1002.12
x1 = 0.9145 | 1025.86 | 1020.33 | 1014.73 | 1009.11
x1 = 0.9604 | 1032.84 | 1027.29 | 1021.66 | 1016.03
x1 = 0.9652 | 1033.57 | 1027.98 | 1022.35 | 1016.71
x1 = 0.9757 | 1035.18 | 1029.58 | 1023.93 | 1018.3
x1 = 0.9817 | 1036.07 | 1030.46 | 1024.82 | 1019.17
x1 = 0.99 | 1037.29 | 1031.66 | 1025.99 | 1020.36
x1 = 0.9954 | 1038.08 | 1032.48 | 1026.83 | 1021.18

CC(C)OC(C)C [diisopropyl ether] + CC#N
mass density [kg/m3]
Conditions | 288.15 K | 293.15 K | 298.15 K | 303.15 K
x1 = 0.0072 | 786.61 | 781.29 | 775.9 | 770.47
x1 = 0.015 | 785.8 | 780.49 | 775.1 | 769.68
x1 = 0.0247 | 784.84 | 779.54 | 774.15 | 768.74
x1 = 0.0308 | 784.29 | 778.97 | 773.59 | 768.17
x1 = 0.0381 | 783.55 | 778.25 | 772.87 | 767.46
x1 = 0.0482 | 782.56 | 777.27 | 771.89 | 766.48
x1 = 0.0991 | 777.78 | 772.47 | 767.11 | 761.72
x1 = 0.1496 | 773.32 | 768.06 | 762.72 | 757.34
x1 = 0.2511 | 765.5 | 760.24 | 754.91 | 749.55
x1 = 0.3069 | 761.73 | 756.5 | 751.18 | 745.83
x1 = 0.3507 | 758.83 | 753.58 | 748.27 | 742.93
x1 = 0.4104 | 755.28 | 750.02 | 744.74 | 739.4
x1 = 0.4513 | 752.87 | 747.67 | 742.35 | 737.04
x1 = 0.5132 | 749.57 | 744.35 | 739.06 | 733.73
x1 = 0.56 | 747.13 | 741.91 | 736.63 | 731.3
x1 = 0.6429 | 743.32 | 738.15 | 732.87 | 727.55
x1 = 0.6938 | 741.1 | 735.9 | 730.64 | 725.33
x1 = 0.76 | 738.32 | 733.12 | 727.83 | 722.53
x1 = 0.8129 | 736.2 | 731.02 | 725.76 | 720.46
x1 = 0.8449 | 735 | 729.8 | 724.53 | 719.26
x1 = 0.904 | 732.62 | 727.46 | 722.22 | 716.94
x1 = 0.9509 | 730.9 | 725.75 | 720.52 | 715.25
x1 = 0.963 | 730.42 | 725.28 | 720.05 | 714.78
x1 = 0.9685 | 730.2 | 725.06 | 719.83 | 714.56
x1 = 0.9815 | 729.68 | 724.52 | 719.32 | 714.06
x1 = 0.9887 | 729.4 | 724.27 | 719.05 | 713.79
x1 = 0.9945 | 729.15 | 724.02 | 718.81 | 713.55

C1CCOC1 [tetrahydrofuran] + CC#N
mass density [kg/m3]
Conditions | 288.15 K | 293.15 K | 298.15 K | 303.15 K
x1 = 0.0053 | 788.34 | 783 | 777.57 | 772.17
x1 = 0.0104 | 789.18 | 783.84 | 778.44 | 773.01
x1 = 0.0197 | 790.72 | 785.35 | 779.94 | 774.52
x1 = 0.0294 | 792.28 | 786.96 | 781.56 | 776.11
x1 = 0.0389 | 793.83 | 788.5 | 783.1 | 777.67
x1 = 0.0993 | 803.2 | 797.8 | 792.41 | 786.97
x1 = 0.1598 | 812.11 | 806.78 | 801.3 | 795.84
x1 = 0.1978 | 817.43 | 812.02 | 806.63 | 801.18
x1 = 0.2441 | 823.65 | 818.27 | 812.84 | 807.39
x1 = 0.2845 | 828.9 | 823.5 | 818.1 | 812.64
x1 = 0.3445 | 836.2 | 830.81 | 825.36 | 819.91
x1 = 0.4022 | 842.91 | 837.51 | 832.02 | 826.57
x1 = 0.4545 | 848.62 | 843.24 | 837.79 | 832.34
x1 = 0.4995 | 853.35 | 847.94 | 842.49 | 837.08
x1 = 0.5298 | 856.4 | 851.03 | 845.55 | 840.1
x1 = 0.5552 | 858.94 | 853.51 | 848.07 | 842.6
x1 = 0.6054 | 863.65 | 858.25 | 852.78 | 847.29
x1 = 0.6405 | 866.78 | 861.42 | 855.96 | 850.47
x1 = 0.6603 | 868.52 | 863.15 | 857.69 | 852.2
x1 = 0.6976 | 871.74 | 866.29 | 860.83 | 855.34
x1 = 0.747 | 875.76 | 870.32 | 864.86 | 859.36
x1 = 0.8003 | 879.84 | 874.36 | 868.9 | 863.41
x1 = 0.8179 | 881.06 | 875.68 | 870.22 | 864.73
x1 = 0.8537 | 883.67 | 878.23 | 872.77 | 867.28
x1 = 0.8975 | 886.63 | 881.19 | 875.76 | 870.25
x1 = 0.9502 | 890 | 884.59 | 879.13 | 873.61
x1 = 0.9671 | 890.93 | 885.55 | 880.09 | 874.59
x1 = 0.9745 | 891.4 | 886.03 | 880.56 | 875.07
x1 = 0.9854 | 892.01 | 886.65 | 881.17 | 875.7
x1 = 0.9877 | 892.14 | 886.76 | 881.29 | 875.8
x1 = 0.994 | 892.51 | 887.12 | 881.66 | 876.13

Source: the NIST ThermoML archive (doi:10.1016/j.jct.2007.09.007)
